Columns and labels:
[1] = DPPH free radical scavenging (antioxidant) assay; settings: computed on basis of TQ content; inactive samples tested up to 1000 μg/mL
Protocol: Antioxidant activity was determined utilizing 2,2-diphenyl-1-picrylhydrazyl (DPPH), which is a stable radical. The odd electron in the DPPH free radical gives a strong absorption maximum at 550 nm and is purple in color. The color turns from purple to yellow as the molar absorption of the DPPH radical at 550 nm is reduced when the odd electron of DPPH radical becomes paired with hydrogen from a free radical scavenging antioxidant to form the reduced DPPH-H. The test samples were dissolved in methanol containing 1% dimethyl sulfoxide and added to microtiter wells in 100 μL aliquots to 100 μL of a 100 μM DPPH solution in methanol. Readings were taken at 10, 30 and 60 minutes following the addition of the test material. Percent inhibition of the DPPH radical by the test material was computed relative to the inhibition of the DPPH radical by the vitamin E analog trolox and tabulated as μmol trolox/g test material.

[2] = test system: IL-6 secretion in 3T3-L1 adipocytes; test: IL-6 secretion in t10-CLA-stimulated 3T3-L1 adipocytes; format: cell-based, murine; settings: t10-CLA 50 μM control = 100; μg TQ equivalents/mL: Thymoquinone 5.0, NS8 0.11, NS9 0.99, NS10 0.012, NSSpent#2 0.0005; NSSpent#1 5 μg/mL; listed as TQ
Protocol: The 3T3-L1 murine fibroblast model as used in Example 4 was used in this experiments. Test materials were added four hours prior to the addition of t10-CLA at a concentration of 50 μM. Following overnight incubation, the supernatant media were sampled for determination of IL-6 and adiponectin. The IL-6 secreted into the medium in response to […] stimulation was quantified using the Quantikine® Mouse IL-6 Immunoassay kit with no modifications (R&D Systems, Minneapolis, Minn.). […] All supernatant media samples were diluted 1:30 for quantification. Test materials and were assayed in duplicate, while solvent controls were replicated eight times. IL-6 and adiponectin secretion were represented relative to the IL-6 and adiponectin secretion of the t10-CLA only controls as the IL-6 and adiponectin index and differences among the means were analyzed by the student's t-test assuming a five percent probability of a type I error (Excel; Microsoft, Redmond, Wash.).

**Q.** Which “DPPH Reducing Activity” value [1] does the source give for `CC1=CC(=O)C(C(C)C)=CC1=O` [Thymoquinone, thymoquinone] here?
**A.** The value was 45.2 μmol Trolox/g TQ.

**Q.** And the “IL-6 Index” value [2]?
**A.** Its value is “inhibited IL-6 secretion”.

Source: patent US9180155B2, “Compositions from Nigella sativa” (Bio Nexus, Ltd, priority 2013, dated 2015)
